In EPA's ToxValDB 9.5 (doi:10.2903/j.efsa.2015.3999):
“And” between values parts separate entries of the source, which are not always exact repeats. Equal entries are not always repeated.

How the values were obtained:
[1] = system: Anas platyrhynchos; conditions: reproductive
[2] = system: Canidae; conditions: subchronic; duration: 90 days; oral; Dog Other; organ weight
[3] = system: Apis mellifera; conditions: acute, mortality
[4] = system: Tagia sp.
[5] = system: Daphnia magna; conditions: chronic/long-term; duration: 21 days; reproduction
[6] = system: Oncorhynchus mykiss
[7] = system: Folsomia candida; conditions: chronic/long-term
[8] = system: Rattus norvegicus; conditions: for LD50: acute, mortality
[9] = system: Colinus virginianus

SMILES: COCC(=O)N(c1c(C)cccc1C)[C@H](C)C(=O)OC [Metalaxyl-M]
- NOEL [1]: 117 mg/kg-day
- NOAEL [2]: 8 mg/kg-day
- LD50 ([3]; dermal): > 100 µg/piece
- LD50 ([3]; oral, unspecified): > 97.3 µg/piece
- LC50 ([4]; acute, duration: 14 days, mortality): 830 mg/kg
- NOEC ([4]; chronic/long-term, duration: 8 weeks): 35.6 mg/kg
- NOEC [5]: 25 mg/L
- LC50 ([6]; acute, duration: 96 hours, mortality): > 100 µg/mL
- NOEC ([6]; chronic/long-term, duration: 28 days, growth): 50 mg/L
- NOEC [7]: 125 mg/kg
- LD50 ([8]; F): 375 mg/kg-day
- LD50 ([8]; M): 953 mg/kg-day
- NOAEL ([8]; reproduction developmental, body weight): 50 mg/kg-day
- LC50 ([9]; acute, oral, diet, mortality): > 5620 mg/kg
- LD50 ([9]; acute, oral, mortality): 1420 mg/kg-day and 981 mg/kg-day and 1180 mg/kg-day
- NOEL ([9]; reproduction developmental): 8.4 mg/kg-day
